From patent US20250120967A1, “TYROSINE KINASES INHIBITORS AND USES THEREOF” (GREAT NOVEL THERAPEUTICS BIOTECH & MEDICALS CORPORATION, priority 2023, published 2025)

Assays:
Assay in all cases: Tyrosine kinase inhibition assay
Format in all cases: biochemical
Conditions in all cases: single concentration 1.0 μM, read-out: percent inhibition
[1] = biological target: T1, BMX (Homo sapiens, UniProt P51813)
T1 sequence (P51813 1-675): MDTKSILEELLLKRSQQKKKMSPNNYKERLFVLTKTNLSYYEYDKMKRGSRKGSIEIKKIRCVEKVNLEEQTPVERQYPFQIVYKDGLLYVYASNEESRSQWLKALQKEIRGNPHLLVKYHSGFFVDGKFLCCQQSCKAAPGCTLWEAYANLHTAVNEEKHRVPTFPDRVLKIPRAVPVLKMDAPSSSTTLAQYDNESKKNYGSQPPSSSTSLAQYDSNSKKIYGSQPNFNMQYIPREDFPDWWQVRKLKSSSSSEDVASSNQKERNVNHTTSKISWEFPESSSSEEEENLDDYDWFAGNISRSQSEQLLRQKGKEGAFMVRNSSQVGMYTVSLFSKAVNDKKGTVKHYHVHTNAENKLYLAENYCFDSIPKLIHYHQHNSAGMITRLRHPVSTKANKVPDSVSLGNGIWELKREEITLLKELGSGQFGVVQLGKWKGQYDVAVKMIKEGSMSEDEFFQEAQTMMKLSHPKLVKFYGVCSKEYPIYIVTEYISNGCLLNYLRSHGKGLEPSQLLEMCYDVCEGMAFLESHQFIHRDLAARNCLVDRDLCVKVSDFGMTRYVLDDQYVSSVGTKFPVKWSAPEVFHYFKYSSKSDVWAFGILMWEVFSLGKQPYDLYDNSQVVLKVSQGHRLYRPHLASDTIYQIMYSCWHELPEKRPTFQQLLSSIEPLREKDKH
In short: (§1)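 Kinase activity was measured by Z′-LYTE peptide assay with ATP at the apparent Km, in kinase buffer (50 mM HEPES pH 7.5, 0.01% BRIJ-35, 10 mM MgCl2, 1 mM EGTA) with 1% DMSO final. Compounds were tested at a single 1.0 μM concentration and reported as percent inhibition; >80% counted as a hit.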

[2] = biological target: FYN A (Homo sapiens, UniProt P06241)
Chain of FYN A (P06241 whole entry): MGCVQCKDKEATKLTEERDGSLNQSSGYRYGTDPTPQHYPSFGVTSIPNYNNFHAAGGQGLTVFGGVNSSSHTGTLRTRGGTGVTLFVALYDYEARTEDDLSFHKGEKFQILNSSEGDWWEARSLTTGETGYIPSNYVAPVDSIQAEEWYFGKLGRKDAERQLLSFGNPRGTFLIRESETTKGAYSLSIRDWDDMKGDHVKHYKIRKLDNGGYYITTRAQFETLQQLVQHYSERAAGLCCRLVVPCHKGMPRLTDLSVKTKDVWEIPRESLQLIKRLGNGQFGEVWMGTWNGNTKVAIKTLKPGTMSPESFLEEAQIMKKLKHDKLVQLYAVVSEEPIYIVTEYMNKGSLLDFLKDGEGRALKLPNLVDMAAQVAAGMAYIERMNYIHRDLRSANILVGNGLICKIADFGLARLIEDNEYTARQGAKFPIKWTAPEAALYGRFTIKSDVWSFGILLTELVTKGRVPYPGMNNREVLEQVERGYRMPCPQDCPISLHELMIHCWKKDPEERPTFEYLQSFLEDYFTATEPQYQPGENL
In short: as §1

[3] = biological target: PTK2B (FAK2) (Homo sapiens, UniProt Q14289)
Chain of PTK2B (FAK2) (Q14289 whole entry): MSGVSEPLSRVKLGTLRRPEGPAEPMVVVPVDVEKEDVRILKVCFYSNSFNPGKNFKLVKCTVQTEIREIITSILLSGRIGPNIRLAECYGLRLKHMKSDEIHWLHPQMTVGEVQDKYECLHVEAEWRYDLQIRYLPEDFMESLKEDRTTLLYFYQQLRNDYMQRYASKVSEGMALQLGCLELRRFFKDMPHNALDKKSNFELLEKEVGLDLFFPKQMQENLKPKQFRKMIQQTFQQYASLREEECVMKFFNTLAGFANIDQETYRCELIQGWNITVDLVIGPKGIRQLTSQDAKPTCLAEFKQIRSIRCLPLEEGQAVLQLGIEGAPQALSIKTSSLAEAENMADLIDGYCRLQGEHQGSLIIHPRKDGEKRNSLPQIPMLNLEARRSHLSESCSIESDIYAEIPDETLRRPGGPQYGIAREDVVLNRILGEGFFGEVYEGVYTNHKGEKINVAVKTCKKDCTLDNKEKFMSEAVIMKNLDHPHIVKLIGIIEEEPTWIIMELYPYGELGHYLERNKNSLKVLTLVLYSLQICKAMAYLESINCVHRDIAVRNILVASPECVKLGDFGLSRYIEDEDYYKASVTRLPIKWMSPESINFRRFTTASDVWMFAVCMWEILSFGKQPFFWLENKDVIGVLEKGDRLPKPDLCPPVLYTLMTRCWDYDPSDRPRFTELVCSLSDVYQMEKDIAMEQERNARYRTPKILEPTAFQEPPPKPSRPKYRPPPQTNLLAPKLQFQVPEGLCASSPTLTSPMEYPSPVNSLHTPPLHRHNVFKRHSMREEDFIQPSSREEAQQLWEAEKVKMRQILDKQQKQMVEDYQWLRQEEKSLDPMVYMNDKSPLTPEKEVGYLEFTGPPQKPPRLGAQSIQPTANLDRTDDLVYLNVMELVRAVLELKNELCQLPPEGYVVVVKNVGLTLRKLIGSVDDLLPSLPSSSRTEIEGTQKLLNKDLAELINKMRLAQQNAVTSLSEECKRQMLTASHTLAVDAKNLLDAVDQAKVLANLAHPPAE
In short: as §1

[4] = biological target: INSR (Homo sapiens, UniProt P06213)
Chain of INSR (P06213 28-1382): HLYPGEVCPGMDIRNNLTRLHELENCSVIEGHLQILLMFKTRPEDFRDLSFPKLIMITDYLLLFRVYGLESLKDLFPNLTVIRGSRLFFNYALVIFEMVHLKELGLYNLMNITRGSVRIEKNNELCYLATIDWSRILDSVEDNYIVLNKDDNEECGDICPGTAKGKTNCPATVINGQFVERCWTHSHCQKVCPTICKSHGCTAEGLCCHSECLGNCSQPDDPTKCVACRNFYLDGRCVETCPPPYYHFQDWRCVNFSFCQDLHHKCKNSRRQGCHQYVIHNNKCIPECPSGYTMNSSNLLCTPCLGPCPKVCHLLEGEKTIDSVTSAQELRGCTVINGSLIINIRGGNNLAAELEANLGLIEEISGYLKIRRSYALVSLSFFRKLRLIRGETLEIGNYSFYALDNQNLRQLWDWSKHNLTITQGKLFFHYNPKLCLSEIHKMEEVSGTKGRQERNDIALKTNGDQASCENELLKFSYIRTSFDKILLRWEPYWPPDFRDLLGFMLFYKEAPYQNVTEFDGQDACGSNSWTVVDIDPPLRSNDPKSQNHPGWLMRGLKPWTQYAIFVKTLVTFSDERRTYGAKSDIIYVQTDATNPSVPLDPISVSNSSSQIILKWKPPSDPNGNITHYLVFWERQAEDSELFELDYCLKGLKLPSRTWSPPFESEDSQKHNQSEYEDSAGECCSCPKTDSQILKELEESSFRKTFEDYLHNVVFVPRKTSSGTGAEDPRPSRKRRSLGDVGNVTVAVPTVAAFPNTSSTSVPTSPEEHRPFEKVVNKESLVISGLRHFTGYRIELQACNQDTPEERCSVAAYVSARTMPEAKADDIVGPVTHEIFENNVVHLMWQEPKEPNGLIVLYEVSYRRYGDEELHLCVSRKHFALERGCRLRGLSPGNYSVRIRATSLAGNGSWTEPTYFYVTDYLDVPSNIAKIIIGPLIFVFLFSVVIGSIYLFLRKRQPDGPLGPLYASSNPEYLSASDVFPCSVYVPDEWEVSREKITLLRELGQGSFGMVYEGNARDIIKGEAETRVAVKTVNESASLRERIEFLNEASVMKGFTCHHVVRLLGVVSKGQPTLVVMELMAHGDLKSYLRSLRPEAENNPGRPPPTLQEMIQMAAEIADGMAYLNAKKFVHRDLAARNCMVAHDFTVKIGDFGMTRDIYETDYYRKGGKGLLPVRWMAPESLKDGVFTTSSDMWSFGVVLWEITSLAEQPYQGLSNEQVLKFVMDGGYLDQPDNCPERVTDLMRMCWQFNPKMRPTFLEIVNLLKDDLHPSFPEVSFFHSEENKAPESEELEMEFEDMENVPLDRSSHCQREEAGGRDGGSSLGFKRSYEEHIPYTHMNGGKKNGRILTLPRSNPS
In short: as §1

[5] = biological target: T2, EPHB3 (Homo sapiens, UniProt P54753)
T2 sequence (P54753 34-998): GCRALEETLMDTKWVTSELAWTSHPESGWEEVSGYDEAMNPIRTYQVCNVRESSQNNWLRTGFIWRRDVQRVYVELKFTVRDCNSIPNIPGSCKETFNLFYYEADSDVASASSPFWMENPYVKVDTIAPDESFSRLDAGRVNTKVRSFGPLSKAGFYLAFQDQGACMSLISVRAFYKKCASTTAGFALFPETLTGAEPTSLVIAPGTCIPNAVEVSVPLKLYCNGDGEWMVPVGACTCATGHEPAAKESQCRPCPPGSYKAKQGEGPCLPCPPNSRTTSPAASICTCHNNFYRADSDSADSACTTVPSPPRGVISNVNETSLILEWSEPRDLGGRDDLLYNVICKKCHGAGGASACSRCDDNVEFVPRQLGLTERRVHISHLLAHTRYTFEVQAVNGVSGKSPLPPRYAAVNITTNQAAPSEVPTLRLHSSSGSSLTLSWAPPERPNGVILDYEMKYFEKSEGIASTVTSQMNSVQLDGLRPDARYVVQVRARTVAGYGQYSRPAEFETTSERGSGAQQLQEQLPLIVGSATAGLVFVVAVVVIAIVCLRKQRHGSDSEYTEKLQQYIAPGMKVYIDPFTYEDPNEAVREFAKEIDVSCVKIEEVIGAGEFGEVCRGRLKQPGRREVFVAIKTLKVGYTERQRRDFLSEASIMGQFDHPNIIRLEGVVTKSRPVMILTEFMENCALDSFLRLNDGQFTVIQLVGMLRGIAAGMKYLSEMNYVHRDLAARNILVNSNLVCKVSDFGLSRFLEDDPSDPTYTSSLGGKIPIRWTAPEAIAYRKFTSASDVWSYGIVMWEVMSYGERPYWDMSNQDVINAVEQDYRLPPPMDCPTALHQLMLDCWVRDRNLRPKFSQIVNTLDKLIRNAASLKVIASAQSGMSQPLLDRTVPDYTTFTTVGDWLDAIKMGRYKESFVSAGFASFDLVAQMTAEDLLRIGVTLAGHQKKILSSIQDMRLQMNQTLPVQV
In short: as §1

Structure (SMILES)	inhibition at 1 µM [1] [%]	inhibition at 1 µM [2] [%]	inhibition at 1 µM [3] [%]	inhibition at 1 µM [4] [%]	inhibition at 1 µM [5] [%]
COc1cc2nccc(Oc3ccc(NC(=O)C4(C(=O)Nc5ccc(F)cc5)CC4)cc3)c2cc1OC [Cabozantinib, reference compound]	36	74	71	16	54
COc1cc2nccc(Oc3ccc(NC(=O)C4(NC(=O)c5ccc(F)cc5)CC4)cc3F)c2cc1OC [Cbo-02, N-(1-((4-((6,7-diMethoxyquinolin-4-yl)oxy)-3-fluorophenyl)carbamoyl)cyclopropyl)-4-fluorobenzamide]	22	30	9	30	4
COc1cc2nccc(Oc3ccc(NC(=O)C4(NC(=O)c5ccc(F)cc5)CC4)cc3F)c2cc1Oc1ccc(N)cc1F [Cbo-10]	33	47	56	69	6
COc1cc2nccc(Oc3ccc(NC(=O)C4(NC(=O)c5ccc(F)cc5)CC4)cc3F)c2cc1Oc1c(F)cc(N)cc1F [Cbo-14]	42	57	54	70	6
COc1cc2nccc(Oc3ccc(NC(=O)C4(C(=O)Nc5ccc(F)cc5)CC4)cc3F)c2cc1Oc1ccc(N)cc1F [Cbo-23]	42	70	100	54	55
